The values below come from patent US4988681A, “Phosphinic acid derivatives” (Banyu Pharmaceutical Co., Ltd., priority 1988, dated 1991).

Molecules are shown by their SMILES.

The test system of data set [1] is nephrotoxicity induced by imipenem. Nature of the data set: Protective action on nephrotoxicity induced by imipenem in rabbits. The conditions noted are these: imipenem 150 mg/kg alone. In kind it is in vivo, male Japanese white rabbits. The method, then:
(3) Protective action on nephrotoxicity induced by carbapenem antibiotics
Twelve male Japanese white rabbits (18 week-old; body weight 3.19-3.54 kg) were divided into three groups each consisting of 4 animals. Imipenem alone was administered in a dose of 150 mg/kg to a first group. To a second group, a combination of imipenem (150 mg/kg) and the compound No. 2 (150 mg/kg) was administered. To a third group as a control, sterilized physiological saline was administered. In all cases, the administration was effected through the auricular vein. Forty-eight hours later, a blood sample was taken from each of the animals, and the BUN and creatinine values were measured. The kidneys of the rabbits were taken and examined histopathologically.

Data set [2] is described as follows: Effect on urinary recovery of carbapenem (imipenem) in rats. In kind it is in vivo, Male SD rats. The conditions noted are these: imipenem 10 mg/kg iv alone, no inhibitor, urine up to 8 hours, n = 3. On the procedure: (2) Effect on urinary recovery of carbapenem
Male SD rats (8 week-old) were grouped, three per group. Imipenem alone was intravenously administered in a dose of 10 mg/kg to a first group. […] For comparison, a combination of imipenem (10 mg/kg) and cilastatin (10 mg/kg) was intravenously administered to a fourth group.
The urinary recovery of imipenem was calculated.

In data set [3] the target is T1, porcine kidney dehydropeptidase I (Sus scrofa, UniProt P22412).
T1 construct: Frozen porcine kidney cortex was homogenized; from tissue; host or cells: porcine kidney cortex
T1 sequence (P22412 17-409): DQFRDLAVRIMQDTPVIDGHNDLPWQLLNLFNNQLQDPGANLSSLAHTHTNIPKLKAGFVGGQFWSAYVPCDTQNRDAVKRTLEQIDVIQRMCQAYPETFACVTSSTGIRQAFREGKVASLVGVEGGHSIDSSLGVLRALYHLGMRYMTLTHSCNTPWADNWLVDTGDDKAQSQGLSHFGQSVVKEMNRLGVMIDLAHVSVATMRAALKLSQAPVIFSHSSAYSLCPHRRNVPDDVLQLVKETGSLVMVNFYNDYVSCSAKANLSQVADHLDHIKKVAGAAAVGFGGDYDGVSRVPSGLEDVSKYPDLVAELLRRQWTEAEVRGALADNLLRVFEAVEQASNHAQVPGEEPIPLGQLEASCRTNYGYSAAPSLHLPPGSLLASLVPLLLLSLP
Nature of the data set: Inhibitory activity on porcine kidney dehydropeptidase I (DHP-I). In kind it is biochemical. The conditions noted are these: substrate glycyldehydrophenylalanine, pH 7.4, 37° C., 3 h pre-incubation; read-out: Concentration producing 50% inhibition (IC50). The method, then: (1) Inhibitory activity on porcine kidney dehydropeptidase I
(i) Purification of porcine dehydropeptidase I
Frozen porcine kidney cortex was homogenized. Butanol (1/4 volume) pre-cooled in a dry ice-acetone bath was added to the homogenate, and the mixture was stirred at 4° C. for 43 hours. The mixture was then dialyzed for one day and centrifuged at 3,000 g for 30 minutes. To the resulting supernatant was added ammonium sulfate. A precipitate at the salt concentration range between 50 and 75% was collected to give a crude enzyme preparation which was re-dissolved in a 50 mM MOPS buffer containing 0.5 M NaCl. The solution was charged on a cilastatin affinity column. Elution with a 50 mM MOPS buffer containing 0.5 M NaCN gave a purified enzyme preparation.
(ii) Measurement of inhibitory activity
The resulting enzyme preparation (3 mU) and an inhibitor were pre-incubatedat 37° C. for 3 hours in 2.7 ml of a 50 mM MOPS buffer (pH 7.4), and then 2.475 ml of the mixture was transferred into a cuvette. As a substrate, 25 microliters of a 5 mM glycyldehydrophenylalanine solution in a 50 mM MOPS buffer (pH 7.4) was added to start an enzymic reaction. The reaction was carried out at 37° C. in a spectrophotometer fitted with a constant-emperature device, and a decrease of the absorbance at 275 nm during a period of 5 minutes was measured. […] An IC50 value was calculated from the percent inhibition data.
One unit (U) is defined as the amount of the enzyme which hydrolyzes 1 micromole of the substrate (glycyldehydrophenylalanine) per minute at a substrate concentration of 0.05 mM at 37° C. in a 50 mM MOPS buffer (pH 7.4).

A short description of data set [4]: Pharmacokinetic evaluation: plasma concentration in rats. In kind it is in vivo, Male SD rats. The following applies: for AUC / concentration at 0.5 h / concentration at 0.25 h / concentration at 5 min / concentration at 1 h / concentration at 2 h / concentration at 4 h / concentration at 6 h / concentration at 8 h / concentration at 24 h: plasma, rat; for AUC: trapezoidal rule; for concentration at 0.5 h: 1/2 h; for concentration at 0.25 h: 1/4 h; for concentration at 5 min: 1/12 h. On the procedure: (4) Pharmacokinetic evaluations
Male SD rats ([…]) were divided into groups each consisting of three animals. […] Furthermore, cilastatin was intravenously administered to a 14th group as a control group.
Plasma samples were taken periodically from the carotid artery through a cannula inserted into it at the points of 1/12, 1/4, 1/2, 1, 2, 4, 6, 8 and 24 hours after the administration.
The area under the curve (AUC) of the plasma concentration was determined according to the trapezoidal rule.

[5] abbreviates: ester po, 10 mg/kg equivalent to compound No. 2, calculated as free acid (No. 2).
The mark [6] stands for this setting: iv 10 mg/kg (cilastatin dose not given).
Setting [7] is: iv 10 mg/kg (cilastatin dose not given), N.D.: below the detection limit.
[8] abbreviates: iv 10 mg/kg, N.D.: below the detection limit.
Setting [9] is: po 10 mg/kg, N.D.: below the detection limit.

For the molecule `C[C@@H](O)[C@H]1C(=O)N2C(C(=O)O)=C(SCCN=CN)C[C@H]12` [Imipenem, reference compound], the “Necrosis of the kidney tissue, number of rabbits which necrotized versus number tested” value in data set [1] is 4/4. In addition, the BUN in data set [1] (auricular vein, 48 hours, * P ≤ 0.05) was determined as 70.8 mg/100 ml. In data set [1] (grade in words), the “Necrosis of the kidney tissue” value is recorded as “Marked”. Moreover, the “Urinary recovery of imipenem, Mean ± S.D.” value in data set [2] was 29.6 ± 4.8%.

The term AUC denotes concentration integrated over time. On to `Cc1oc(=O)oc1COC(=O)/C(=C/C1CCCCC1)CP(=O)(O)CC(C)C` [Compound No. 27, (5-methyl-2-oxo-1,3-dioxol-4-yl)methyl (Z)-3-cyclohexyl-2-(hydroxyisobutylphosphinoyl)methylpropenoate], for which, in data set [3], the IC50 turned out to be 150000 nM. Further, in data set [4] (setting [5]), the AUC was 56900 ng·h/mL, the concentration at 0.5 h is 13300 ng/mL, the concentration at 0.25 h was 10100 ng/mL and the concentration at 5 min was 1500 ng/mL. Further, in data set [4] (setting [5]), the concentration at 1 h was 11500 ng/mL, the concentration at 2 h is 9300 ng/mL, the concentration at 4 h is 4600 ng/mL and the concentration at 6 h was 2600 ng/mL. Moreover, the concentration at 8 h in data set [4] (setting [5]) was 1400 ng/mL. Further, in data set [4] (rats, in words), the Oral absorbability entry is listed as “better oral absorbability than the compound No. 2”.

In the case of `CC(C)CP(=O)(O)C/C(=C\C1CC1)C(=O)O` [Compound No. 10, (Z)-3-cyclopropyl-2-(hydroxyisobutylphosphinoyl)methylpropenoic acid], the IC50 in data set [3] amounted to 14 nM. Besides, in data set [4] (setting [6]), the AUC was determined as 40600 ng·h/mL, the concentration at 0.5 h was determined as 21700 ng/mL, the concentration at 0.25 h was 26500 ng/mL and the concentration at 5 min was 40800 ng/mL. For the same molecule, in data set [4] (po 10 mg/kg), the AUC was 3900 ng·h/mL, the concentration at 0.5 h amounted to 1400 ng/mL, the concentration at 0.25 h amounted to 1100 ng/mL and the concentration at 5 min came to 500 ng/mL. Further, in data set [4] (po 10 mg/kg), the concentration at 1 h was determined as 1200 ng/mL, the concentration at 2 h amounted to 800 ng/mL, the concentration at 4 h amounted to 300 ng/mL and the concentration at 6 h was 200 ng/mL. The same molecule registered a concentration at 1 h in data set [4] (setting [7]) of 12800 ng/mL. In data set [4] (iv 10 mg/kg), the concentration at 2 h stood at 5200 ng/mL, the concentration at 4 h came out at 1100 ng/mL and the concentration at 8 h is 200 ng/mL. Also, the concentration at 6 h in data set [4] (setting [8]) was 200 ng/mL.

In the case of `CC1(C)CC1P(=O)(O)C/C(=C\C1CCCCC1)C(=O)O` (stereo not drawn) [Compound No. 5, (Z)-3-cyclohexyl-2-(2,2-dimethylcyclopropylhydroxyphosphinoyl)methylpropenoic acid], the IC50 in data set [3] turned out to be 8.2 nM. In data set [4] (setting [6]), the AUC amounted to 88200 ng·h/mL, the concentration at 0.5 h worked out at 36200 ng/mL, the concentration at 0.25 h turned out to be 49400 ng/mL and the concentration at 5 min was found to be 51900 ng/mL. Moreover, in data set [4] (po 10 mg/kg), the AUC came to 22500 ng·h/mL, the concentration at 0.5 h is 6400 ng/mL, the concentration at 0.25 h came out at 4700 ng/mL and the concentration at 5 min is 2500 ng/mL. In data set [4] (po 10 mg/kg), this molecule displayed a concentration at 1 h of 5300 ng/mL, a concentration at 2 h of 3400 ng/mL, a concentration at 4 h of 2400 ng/mL and a concentration at 6 h of 1100 ng/mL. For the same molecule, the concentration at 1 h in data set [4] (setting [7]) came out at 24400 ng/mL. Further, in data set [4] (iv 10 mg/kg), the concentration at 2 h was 11900 ng/mL, the concentration at 4 h was found to be 4700 ng/mL and the concentration at 8 h was determined as 900 ng/mL. For the same molecule, in data set [4] (setting [8]), the concentration at 6 h is 1700 ng/mL and the concentration at 24 h was found to be 100 ng/mL. Besides, in data set [4] (setting [9]), the concentration at 8 h is 300 ng/mL.

In the case of `O=C(O)/C(=C/C1CCCCC1)CP(=O)(O)CC1CCCCC1` [Compound No. 28, (Z)-3-cyclohexyl-2-(cyclohexylmethylhydroxyphosphinoyl)methylpropenoic acid], in data set [3], the IC50 amounted to 50 nM. In data set [4] (setting [6]), this molecule returned an AUC of 82400 ng·h/mL, a concentration at 0.5 h of 30400 ng/mL, a concentration at 0.25 h of 40600 ng/mL and a concentration at 5 min of 58100 ng/mL. In data set [4] (po 10 mg/kg), the AUC was 19000 ng·h/mL, the concentration at 0.5 h is 3400 ng/mL, the concentration at 0.25 h was determined as 3100 ng/mL and the concentration at 5 min turned out to be 1300 ng/mL. In data set [4] (po 10 mg/kg), this molecule displayed a concentration at 1 h of 2500 ng/mL, a concentration at 2 h of 3000 ng/mL, a concentration at 4 h of 1900 ng/mL and a concentration at 6 h of 1100 ng/mL. This molecule also registered a concentration at 1 h in data set [4] (setting [7]) of 18300 ng/mL. In data set [4] (iv 10 mg/kg), this molecule came in with a concentration at 2 h of 11700 ng/mL, a concentration at 4 h of 4800 ng/mL and a concentration at 8 h of 1000 ng/mL. Further, in data set [4] (setting [8]), the concentration at 6 h worked out at 2300 ng/mL and the concentration at 24 h turned out to be 100 ng/mL. In addition, the concentration at 8 h in data set [4] (setting [9]) is 500 ng/mL.

For the molecule `CC(C)CP(=O)(O)C/C(=C\CCCSC[C@H](N)C(=O)O)C(=O)O` [Compound No. 23, (Z)-6-[(L)-2-amino-2-carboxyethyl]thio-2-(hydroxyisobutylphosphinoyl)methyl-2-hexenoic acid], in data set [3], the IC50 stood at 48 nM. In data set [4] (setting [6]), this molecule yielded an AUC of 17900 ng·h/mL, a concentration at 0.5 h of 13900 ng/mL, a concentration at 0.25 h of 21000 ng/mL and a concentration at 5 min of 28700 ng/mL. The molecule also yielded a concentration at 1 h in data set [4] (setting [7]) of 4200 ng/mL. In data set [4] (iv 10 mg/kg), this molecule had a concentration at 2 h of 900 ng/mL and a concentration at 4 h of 100 ng/mL.
